Measured values reported in PMC9865214 (International Journal of Molecular Sciences, 2023).
Where a name gives a salt, the structure may show the parent alone.

Legend:
[1] = IPI content of L3-L5 spinal segments by mass spectrometry; assay type: in vivo, Wistar rat; settings: CART(55-76)-treated inflamed rats; LC-MS/MS; p = 0.032 vs inflamed, p = 0.027 vs naive
Procedure: Three naïve adult male Wistar rats (NG10, NG11, and NG12), 3 rats with unilateral carrageenan-induced hind paw inflammation (GG9, GG10, and GG11), and 3 inflamed rats that received CART(55-76) peptide intrathecally (CG9, CG10, and CG11) were decapitated, and L3–L5 spinal cord segments were removed and snap frozen on dry ice. Tissue was homogenized by sonication in cold acetonitrile (4 °C) in a volume of 10 µL/mg of tissue and centrifuged for 10 min at 14,000 rpm. Supernatant was transferred into Eppendorf tubes and stored at −80 °C until use.
Standard solution of IPI was used for making the calibration curve in the range of 0–50 ng/mL. […] Water containing 0.1% formic acid (eluent A) and acetonitrile containing 0.1% formic acid (eluent B) were used for separation in gradient mode. […] The initial concentration was reached within 0.5 min, and the equilibration time was 5.5 min. The flow rate was 0.5 mL/minute. Column temperature was ambient. The injection volume was 10 µL. […] MRM transitions were identified in product ion scan mode. […] Dwell times were 150 ms for each transition.

[2] = tested on: TLR4 activation-induced cytokine expression; settings: cited from earlier work
Source text: The synaptic model of hyperalgesia is the LTP at C-fibre synapses. The induction of hyperalgesia and LTP by inducible mediators including TNFα was discovered and called gliogenic LTP [35]. […] The opioid-mediated effect is established by an exogenous peptide if an opioid receptor is activated or if an endogenous opioid release is induced.

[3] = tested on: TLR4 in the TLR4/myeloid differentiation protein-2 heterodimer; settings: ref [68],[69],[70] (NTX, naloxone), [71] (CTAP); cited from earlier work
Source text: (§1) The opioid-mediated effect is established by an exogenous peptide if an opioid receptor is activated or if an endogenous opioid release is induced.

[4] = tested on: inflammatory hyperalgesia; settings: naltrexone alone; ref [67]; cited from earlier work
Source text: as §1

[5] = tested on: chronic constriction injury model; settings: chronic constriction injury model in rats; ref [75]; cited from earlier work
Source text: (§2) The similarity of the first two amino acids in the N-terminal region of CART(62-76) to endogenous opioid peptides raises the possibility that this fragment may also bind to […]. Specific binding studies are necessary to answer this question. […] Further studi ...

[6] = tested on: chronic pain states; settings: low-dose NTX, humans; ref [76]; cited from earlier work
Source text: as §2

[7] = tested on: hyperalgesia provoked by carrageenan or partial nerve ligation; settings: no ref given; cited from earlier work
Source text: Further studies are needed to reveal the signalling mechanism to understand this process.

[8] = tested on: spinal astrocytes (TNFα secretion); experiment: TNFα secretion of LPS-stimulated spinal astrocyte cultures, ELISA; assay type: cell-based, Wistar rat; settings: 1 μg/mL LPS, control level set to 100%
Procedure: (§3) For the production of spinal cord astrocyte cultures, we followed the procedure already described by Pap et al. with slight modifications. Briefly, the whole spinal cord was removed from 7–8 day-old Wistar rat pups after decapitation and was placed into ice-cold dissecting buffer (136 mM NaCl, 5.2 mM KCl, 0.64 mM Na2HPO4, 0.22 mM KH2PO4, 16.6 mM glucose, 22 mM sucrose, 10 mM HEPES supplemented with 0.06 U/mL penicillin and 0.06 U/mL streptomycin). The isolated spinal cords were cleaned of the meninges, then were placed into fresh dissecting solution containing 0.025 g/mL bovine trypsin (Merck–Sigma-Aldrich), and were incubated at 37 °C for 30 min. Then, the solution was replaced by Minimum Essential Medium (MEM, Gibco, Life Technologies Ltd., Parsely, UK) supplemented with 10% Fetal Bovine Serum (FBS, Hyclone, GE Healthcare Bio-Sciences, Pittsburgh, PA, USA). […]
ELISA was performed as already described. […] Colour reaction was developed by o-phenylene-diamine, and the optical density was measured at λ = 492 nm by ELISA plate reader (Titertek, Uniscan, Flow Laboratories, Helsinki, Finland).
Optical density data were averaged, and the standard error of mean values was calculated for each treatment. […] Statistically significant differences were calculated by one-way ANOVA followed by Student-Newman-Keuls pairwise comparison. […]

[9] = tested on: spinal astrocytes (DPP4 expression); experiment: DPP4 expression of spinal astrocytes, western blot; assay type: cell-based, Wistar rat; settings: 1 μg/mL LPS
Procedure: as §3, with “USA). Finally, cells were suspended by gentle suspension of the tissue pieces by a Pasteur pipette. The cell number was identified, the cell density was set to 1 × 10^6/mL, and the cells were placed into 24 well tissue culture plates (0.5 mL/well).” for “USA).”
Fractions of 50 µg protein/lane cytosol were run on 10% polyacrylamide gels. […] Relative protein levels for DPP4 upon 16 h of LPS treatment were quantified by densitometry in three independent astrocyte cultures and analysed by the Kolmogorov-Smirnov statistical test.

[10] = tested on: spinal astrocytes (DPP4, TLR4, caveolin-1); experiment: Immunocytochemistry of spinal astrocytes (DPP4, TLR4, caveolin-1); assay type: cell-based, Wistar rat
Procedure: as §3, with “USA). Finally, cells were suspended by gentle suspension of the tissue pieces by a Pasteur pipette. The cell number was identified, the cell density was set to 1 × 10^6/mL, and the cells were placed into 24 well tissue culture plates (0.5 mL/well). The cell cultures were kept at 37 °C in a 5% CO2 atmosphere, and the medium was replaced the following day and then every second day.” for “USA).”

CC[C@H](C)[C@H](N)C(=O)N1CCC[C@H]1C(=O)N[C@H](C(=O)O)[C@@H](C)CC [IPI, isoleucine-proline-isoleucine]
IPI concentration of spinal segments, change [1]: increased significantly

O=C1CC[C@@]2(O)[C@H]3Cc4ccc(O)c5c4[C@@]2(CCN3CC2CC2)[C@H]1O5 [NTX, naltrexone hydrochloride]
Effect on TLR4 agonist-induced cytokine production ([2]; ref [72]): did not block the TLR4 agonist-induced cytokine production
TLR4 antagonism [3]: TLR4 antagonists
Effect on inflammatory hyperalgesia [4]: no effect on inflammatory hyperalgesia
Antiallodynic effect [5]: antiallodynic effect
Effect in chronic pain states [6]: effective in a variety of chronic pain states in humans

Cn1c(=O)cc(N2CCC[C@@H](N)C2)n(Cc2ccccc2C#N)c1=O [algogliptin]
Effect on TLR4 activation-induced cytokine expression ([2]; IL-6, IL-1β and other cytokines, ref [57]): decreased the TLR4 activation-induced IL-6, IL-1β, and other cytokine expression

C=CCN1CC[C@]23c4c5ccc(O)c4O[C@H]2C(=O)CC[C@@]3(O)[C@H]1C5 [naloxone]
TLR4 antagonism [3]: TLR4 antagonists

N#C[C@@H]1CCCN1C(=O)CNC12CC3CC(CC(O)(C3)C1)C2 [vildagliptin]
Antihyperalgesic effect in neuropathic condition [7]: antihyperalgesic effects in a neuropathic condition

D-Phe-Cys-Tyr-D-Trp-Arg-Thr-Pen-Thr-NH2 [CTAP]
TLR4 antagonism [3]: TLR4 antagonists

lipopolysaccharide [LPS]
Relative TNFα secretion with LPS [8]: 368 ± 9%
DPP4 optical density value ([9]; 16 h (control 0.62 ± 0.084), densitometry): 1.08 ± 0.059
DPP4 expression level increase ([9]; 16 h, vs control cultures, three independent cultures, ± SEM): 74.3 ± 9.6%
DPP4 staining intensity ([10]; 1 μg/mL LPS, 6 h): considerably increased
TLR4 and caveolin-1 subcellular localization ([10]; LPS-stimulated cultures, 1 μg/mL): both proteins were trafficked toward the cell surface
